{"source": "ChEMBL document CHEMBL1147056", "about": "“Potentiation of mammary cancer inhibition by combination of antagonists of growth hormone-releasing hormone with docetaxel” (Proc Natl Acad Sci U S A, 2007)", "key": {"Mus musculus [1]": {"tested_on": "Mus musculus", "assay": "Toxicity in human MX1 cells xenografted athymic nude Ncr nu/nu mouse assessed as body weight at 10 ug/day, sc after 24 days relative to control", "type": "organism-based", "conditions": "in vivo, 576 h"}, "MX1 [2]": {"tested_on": "MX1", "assay": "Antitumor activity against human MX1 cells xenografted athymic nude Ncr nu/nu mouse assessed as inhibition of tumor weight at 10 ug/day, sc after 3 weeks", "type": "functional"}, "MX1 [3]": {"tested_on": "MX1", "assay": "Antitumor activity against human MX1 cells xenografted athymic nude Ncr nu/nu mouse assessed as inhibition of tumor volume at 10 ug/day, sc after 3 weeks", "type": "functional"}, "MX1 [4]": {"tested_on": "MX1", "assay": "Antitumor activity against human MX1 cells xenografted athymic nude Ncr nu/nu mouse assessed as inhibition of tumor volume at 20 mg/kg, ip after 3 weeks", "type": "functional", "conditions": "504 h, route intraperitoneal"}, "MX1 [5]": {"tested_on": "MX1", "assay": "Antitumor activity against human MX1 cells xenografted athymic nude Ncr nu/nu mouse assessed as inhibition of tumor weight at 20 mg/kg, ip after 15 days", "type": "functional", "conditions": "360 h, route intraperitoneal"}, "MX1 [6]": {"tested_on": "MX1", "assay": "Antitumor activity against human MX1 cells xenografted athymic nude Ncr nu/nu mouse assessed as inhibition of tumor volume at 20 mg/kg, ip after 8 days", "type": "functional", "conditions": "192 h, route intraperitoneal"}, "Mus musculus [7]": {"tested_on": "Mus musculus", "assay": "Toxicity in human MX1 cells xenografted athymic nude Ncr nu/nu mouse assessed as body weight at 20 mg/kg, ip after 24 days relative to control", "type": "organism-based", "design": "dose 20 mg/kg, route intraperitoneal", "conditions": "in vivo, 576 h"}, "[8]": {"biological_target": "T1, Growth hormone-releasing hormone receptor (Homo sapiens, UniProt Q02643)", "T1 sequence (Q02643 whole entry)": "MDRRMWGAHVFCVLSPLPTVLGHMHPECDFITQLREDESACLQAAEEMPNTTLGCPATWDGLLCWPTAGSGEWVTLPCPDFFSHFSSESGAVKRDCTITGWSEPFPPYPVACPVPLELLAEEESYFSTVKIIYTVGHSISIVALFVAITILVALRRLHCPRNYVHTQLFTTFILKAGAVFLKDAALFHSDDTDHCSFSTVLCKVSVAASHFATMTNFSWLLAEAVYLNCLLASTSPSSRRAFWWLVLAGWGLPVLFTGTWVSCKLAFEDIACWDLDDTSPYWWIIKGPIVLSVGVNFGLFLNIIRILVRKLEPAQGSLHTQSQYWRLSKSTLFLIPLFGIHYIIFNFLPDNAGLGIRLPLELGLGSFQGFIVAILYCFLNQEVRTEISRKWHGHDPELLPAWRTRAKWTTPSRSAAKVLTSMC", "assay": "Displacement of [125I]JV1-42 from GHRH receptor expressed in human MX1 cells", "type": "cell-based"}, "[9]": {"biological_target": "Epidermal growth factor receptor (Homo sapiens, UniProt P00533)", "sequence (P00533 whole entry)": "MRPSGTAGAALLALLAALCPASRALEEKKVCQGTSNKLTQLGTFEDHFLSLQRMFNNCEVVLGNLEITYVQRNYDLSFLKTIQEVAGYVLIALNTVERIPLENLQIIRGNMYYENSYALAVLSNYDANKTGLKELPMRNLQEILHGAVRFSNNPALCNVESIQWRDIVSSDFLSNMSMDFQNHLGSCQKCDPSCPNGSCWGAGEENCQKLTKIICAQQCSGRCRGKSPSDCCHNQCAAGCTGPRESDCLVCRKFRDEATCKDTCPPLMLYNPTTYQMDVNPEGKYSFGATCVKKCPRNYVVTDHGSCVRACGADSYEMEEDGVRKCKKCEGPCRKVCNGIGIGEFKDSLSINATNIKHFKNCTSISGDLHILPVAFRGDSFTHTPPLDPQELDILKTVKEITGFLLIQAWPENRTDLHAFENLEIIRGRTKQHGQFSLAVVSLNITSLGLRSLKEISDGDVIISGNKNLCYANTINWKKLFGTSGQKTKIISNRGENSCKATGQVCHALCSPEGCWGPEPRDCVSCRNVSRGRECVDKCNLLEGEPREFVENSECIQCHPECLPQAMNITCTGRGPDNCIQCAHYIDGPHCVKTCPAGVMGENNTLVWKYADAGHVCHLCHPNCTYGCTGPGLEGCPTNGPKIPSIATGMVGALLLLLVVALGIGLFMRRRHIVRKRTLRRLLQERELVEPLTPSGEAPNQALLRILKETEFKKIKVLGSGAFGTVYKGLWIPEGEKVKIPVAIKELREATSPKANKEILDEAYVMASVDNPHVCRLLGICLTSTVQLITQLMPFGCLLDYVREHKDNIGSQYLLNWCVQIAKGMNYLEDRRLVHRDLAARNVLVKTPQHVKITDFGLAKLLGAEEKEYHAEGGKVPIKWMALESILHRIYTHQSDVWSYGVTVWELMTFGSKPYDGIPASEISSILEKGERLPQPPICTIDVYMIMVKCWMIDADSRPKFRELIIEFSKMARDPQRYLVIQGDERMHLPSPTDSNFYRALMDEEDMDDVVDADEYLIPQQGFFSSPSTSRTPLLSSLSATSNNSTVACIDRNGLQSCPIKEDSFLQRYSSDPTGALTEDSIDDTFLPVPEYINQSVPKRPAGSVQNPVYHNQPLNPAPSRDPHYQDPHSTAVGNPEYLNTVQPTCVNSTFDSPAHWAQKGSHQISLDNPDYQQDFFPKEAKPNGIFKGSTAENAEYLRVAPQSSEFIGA", "assay": "Displacement of radiolabeled EGF from EGF receptor expressed in human MX1 cells", "type": "cell-based"}}, "data": [{"smiles": "CCCC[C@H](NC(=O)[C@@H](NC(=O)[C@H](CC(=O)O)NC(=O)[C@H](CCC(N)=O)NC(=O)[C@H](CC(C)C)NC(=O)[C@H](CC(C)C)NC(=O)[C@H](CCCCN)NC(=O)[C@H](Cc1cnc[nH]1)NC(=O)[C@H](C)NC(=O)[C@H](CO)NC(=O)[C@H](CC(C)C)NC(=O)[C@H](CCC(N)=O)NC(=O)[C@H](CC)NC(=O)[C@H](CC(C)C)NC(=O)[C@@H](NC(=O)[C@H](CCCCN)NC(=O)[C@H](Cc1cnc[nH]1)NC(=O)[C@H](Cc1ccc(OC)cc1)NC(=O)[C@H](CCCCNC(=N)N)NC(=O)[C@H](C)NC(=O)[C@@H](NC(=O)[C@H](Cc1ccc(Cl)cc1)NC(=O)[C@@H](NC(=O)[C@H](C)NC(=O)[C@H](CC(=O)O)NC(=O)[C@@H](CCCNC(=N)N)NC(=O)[C@H](Cc1ccc(O)cc1)NC(=O)Cc1ccccc1)[C@@H](C)CC)[C@@H](C)O)C(C)C)[C@@H](C)CC)C(=O)N[C@H](CCCNC(=N)N)C(=O)N[C@@H](CCCCNC(=N)N)C(N)=O", "note": "[listing 1 of 2 here]", "values": [{"measurement": "Activity", "setting": "Mus musculus [1]", "result": 24.6, "unit": "g"}]}, {"smiles": "CCCC[C@H](NC(=O)[C@@H](NC(=O)[C@H](CC(=O)O)NC(=O)[C@H](CCC(N)=O)NC(=O)[C@H](CC(C)C)NC(=O)[C@H](CC(C)C)NC(=O)[C@H](CCCCN)NC(=O)[C@H](Cc1cnc[nH]1)NC(=O)[C@H](C)NC(=O)[C@H](CO)NC(=O)[C@H](CC(C)C)NC(=O)[C@H](CCC(N)=O)NC(=O)[C@H](CC)NC(=O)[C@H](CC(C)C)NC(=O)[C@@H](NC(=O)[C@H](CCCCN)NC(=O)[C@H](Cc1cnc[nH]1)NC(=O)[C@H](Cc1ccc(OC)cc1)NC(=O)[C@H](CCCCNC(=N)N)NC(=O)[C@H](C)NC(=O)[C@@H](NC(=O)[C@H](Cc1ccc(Cl)cc1)NC(=O)[C@@H](NC(=O)[C@H](C)NC(=O)[C@H](CC(=O)O)NC(=O)[C@@H](CCCNC(=N)N)NC(=O)[C@H](Cc1ccc(O)cc1)NC(=O)Cc1ccccc1)[C@@H](C)CC)[C@@H](C)O)C(C)C)[C@@H](C)CC)C(=O)N[C@H](CCCNC(=N)N)C(=O)N[C@@H](CCCCNC(=N)N)C(N)=O", "note": "[listing 2 of 2 here]", "values": [{"measurement": "Inhibition", "setting": "MX1 [2]", "result": 47.8, "unit": "%"}, {"measurement": "Inhibition", "setting": "MX1 [3]", "result": 62.9, "unit": "%"}]}, {"smiles": "CC(=O)O[C@@]12CO[C@@H]1C[C@H](O)[C@@]1(C)C(=O)[C@H](O)C3=C(C)[C@@H](OC(=O)[C@H](O)[C@@H](NC(=O)OC(C)(C)C)c4ccccc4)C[C@@](O)([C@@H](OC(=O)c4ccccc4)[C@H]21)C3(C)C.O.O.O", "note": "[DOCETAXEL]", "values": [{"measurement": "inhibition in vivo at 20 mg/kg", "setting": "MX1 [4]", "result": 74.1, "unit": "%"}, {"measurement": "inhibition in vivo at 20 mg/kg", "setting": "MX1 [5]", "result": 58.6, "unit": "%"}, {"measurement": "inhibition in vivo at 20 mg/kg", "setting": "MX1 [6]", "result": 29, "unit": "%"}, {"measurement": "Activity", "setting": "Mus musculus [7]", "result": 24, "unit": "g"}, {"measurement": "IC50", "setting": "[8]", "result": 0.14, "unit": "nM"}, {"measurement": "Bmax", "setting": "[9]", "result": 278, "unit": "fmol/mg"}, {"measurement": "Kd", "setting": "[9]", "result": 0.82, "unit": "nM"}]}, {"smiles": "CC[C@H](NC(=O)[C@H](CC(C)C)NC(=O)[C@@H](NC(=O)[C@H](CCCCN)NC(=O)[C@H](Cc1cnc[nH]1)NC(=O)[C@H](Cc1ccc(C)cc1)NC(=O)[C@H](CCCCNC(=N)N)NC(=O)[C@H](C)NC(=O)[C@@H](NC(=O)[C@H](Cc1ccc(Cl)cc1)NC(=O)[C@@H](NC(=O)[C@H](C)NC(=O)[C@H](CC(=O)O)NC(=O)[C@@H](CCCNC(=N)N)NC(=O)[C@H](Cc1ccc(O)cc1)NC(=O)Cc1ccccc1)[C@@H](C)CC)[C@@H](C)O)C(C)C)C(=O)N[C@@H](CCC(N)=O)C(=O)N[C@@H](CC(C)C)C(=O)N[C@@H](CO)C(=O)N[C@@H](C)C(=O)N[C@@H](Cc1cnc[nH]1)C(=O)N[C@@H](CCCCN)C(=O)N[C@@H](CC(C)C)C(=O)N[C@@H](CC(C)C)C(=O)N[C@@H](CCC(N)=O)C(=O)N[C@@H](CC(=O)O)C(=O)N[C@H](C(=O)N[C@H](C(=O)N[C@H](CCCNC(=N)N)C(=O)N[C@@H](CCCCNC(=N)N)C(N)=O)[C@@H](C)CC)[C@@H](C)CC", "values": [{"measurement": "Bmax", "setting": "[9]", "result": 92.4, "unit": "fmol/mg"}, {"measurement": "Kd", "setting": "[9]", "result": 0.94, "unit": "nM"}, {"measurement": "inhibition", "setting": "[9]; concentration not given here", "result": 68, "unit": "%"}]}]}
